Measured values published in patent US20020165141A1, “Methods for promoting dendritic cell proliferation or differentiation” (priority 2000, published 2002).
Entries after “also recorded” stand apart in the source; their conditions may differ.

Columns and labels:
[1] = Tests of AII fragments for effectiveness (test not described); conditions: test not specified
[2] = system: dendritic cells; assay: Effect of angiotensin peptides on dendritic cell proliferation (cells per well by phase contrast microscopy); assay type: cell-based, C57B1/6 mice; conditions: cytokine(s) added to the cultures alone
Description: Isolation of Dendritic Cells from Mice Treated with flt3 Ligand: Spleens were enriched in vivo with dendritic cells by stimulation with flt3 ligand (Marakovsky et al, 1996). C57B1/6 mice were subcutaneously injected with 4×10^6 flt3 ligand-secreting B16 melanoma cells prepared by transfection of murine flt3 ligand cDNA with the retroviral vector MFG. Spleen cells were harvested after the tumors reached 2-3 cm in diameter, at which time the spleens were 5-10 fold enlarged over those of untreated mice.
The spleens were harvested and the cells were dispersed through sterile screens. A single cell suspension of whole splenocytes was resuspended in a high-density BSA solution (1 ml/spleen) containing 10.6 g BSA, 18.6 ml PBS, 2.9 ml 1 N NaOH, and 6.5 ml water. After overlaying 2 ml of ice-cold RPMI, the splenocyte/BSA solution was centrifuged for 15 minutes at 9500 g. About 5×10^7 dendritic cells/spleen were recovered from the interface and resuspended in RPMI. […]
Culture of Dendritic Cells: Twenty four hours after isolation, these cells were counted and placed in culture in RPMI 1640 supplemented with 10% fetal calf serum, 2 mM 1 glutamine, 1 mM sodium pyruvate, 50 μM mercaptoethanol, 100 U/ml penicillin and 100 μg/ml streptomycin at a concentration of 1×10^3 cells/well of a 96 well plate. One third of the wells were counted at random to ensure even distribution of the cells to the wells. […]

Row | Molecule | effectiveness [1] | number of cells per well / cellular proliferation, cytokine without angiotensin peptide [2]
1 | His-Pro-Phe (HPF) [AII(6-8)] | not to be effective | 
2 | Tyr-Ile-His-Pro-Phe (YIHPF) [AII(4-8)] | not to be effective; also recorded: ineffective | 
3 | GM-CSF: murine recombinant granulocyte macrophage-colony stimulating factor, 50 ng/ml (protein, UniProt P01587 18-141, looked up) Granulocyte-macrophage …: APTRSPITVTRPWKHVEAIKEALNLLDDMPVTLNEEVEVVSNEFSFKKLTCVQTRLKIFEQGLRGNFTKLKGALNMTASYYQTYCPPTPETDCETQVTTYADFIDSLKTFLTDIPFECKKPGQK |  | did not increase cellular proliferation
4 | IL-6: murine recombinant Interleukin 6 (IL-6), 25 ng/ml (protein, UniProt P08505 25-211, looked up) Interleukin-6: FPTSQVRRGDFTEDTTPNRPVYTTSQVGGLITHVLWEIVEMRKELCNGNSDCMNNDDALAENNLKLPEIQRNDGCYQTGYNQEICLLKISSGLLEYHSYLEYMKNNLKDNKKDKARVLQRDTETLIHIFNQEVKDLHKIVLPTPISNALLTDKLESQKEWLRTKTIQFILKSLEEFLKVTLRSTRQT |  | did not affect the number of cells per well
